Test results from patent publication US11351271B2, “RNA-based logic circuits with RNA binding proteins, aptamers and small molecules” (priority 2014, dated 2022).

Experiments:
DDd-L7Ae [1] = assay: DDd-L7Ae OFF switch on replicon in myotubes differentiated from C2C12; type: cell-based
DDd-L7Ae [2] = tested on: DDd-L7Ae
[3] = tested on: DDe (human estrogen receptor ligand binding domain) fused to Fluc2; settings: C2C12

In the case of `O=C1Nc2ccc3ncsc3c2/C1=C/c1cnc[nH]1` [C16], the “Effect on expression and fold change of the DDd-L7Ae circuit” value (DDd-L7Ae [1]; myotubes) is reported as “increase expression and overall fold change”.
`COc1cc(Cc2cnc(N)nc2N)cc(OC)c1OC` [TMP, trimethoprim] was tested, and the “Decrease in expression after addition of TMP” value (DDd-L7Ae [1]; mouse myotubes, optimized circuit with PKR inhibitors) was 15 fold and the “Repression of reporter upon addition of TMP” value (DDd-L7Ae [2]) was 22.5 fold.
In the case of `CC/C(=C(\c1ccc(O)cc1)c1ccc(OCCN(C)C)cc1)c1ccccc1` [4-OHT, 4-hydroxytamoxifin], the “Increase of DDe-Fluc2 expression compared to no small molecule” value [3] is reported as 6.4 fold.
